Data published in patent US11053204B2, “Pyrimidinyloxy benzene derivatives as herbicides” (FMC Corporation, priority 2015, dated 2021).

Legend:
Assay type in all cases: in vivo
corn (Zea mays) = experiment: Test A postemergence, visual injury rating; conditions: 0 is no effect, 100 is complete control; for Corn plant response rating: 31 g ai/ha, 0 to 100 scale, approximately 10 days
Method in brief: (§1)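 Scoring: eye-based comparison with untreated controls, 0 for no effect through 100 for complete control, at about day 10. Treatments: directed soil spray preemergence; foliar spray postemergence on 2–10 cm plants at the one- to two-leaf stage. Medium: loam soil with sand.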

[1] = tested on: ragweed (common ragweed, Ambrosia elatior); experiment: Test A postemergence, visual injury rating; conditions: 0 is no effect, 100 is complete control; for Ragweed plant response rating: 31 g ai/ha, 0 to 100 scale, approximately 10 days
Method in brief: as §1

[2] = tested on: Italian ryegrass (Lolium multiflorum); experiment: Test A postemergence, visual injury rating; conditions: 0 is no effect, 100 is complete control; for Ryegrass, Italian plant response rating: 31 g ai/ha, 0 to 100 scale, approximately 10 days
Method in brief: as §1

kochia (Kochia scoparia) [3] = experiment: Test A postemergence, visual injury rating; conditions: 0 is no effect, 100 is complete control; for Kochia plant response rating: 31 g ai/ha, 0 to 100 scale, approximately 10 days
Method in brief: as §1

[4] = tested on: blackgrass (Alopecurus myosuroides); experiment: Test A postemergence, visual injury rating; conditions: 0 is no effect, 100 is complete control; for Blackgrass plant response rating: 31 g ai/ha, 0 to 100 scale, approximately 10 days
Method in brief: as §1

[5] = tested on: barnyardgrass (Echinochloa crus-galli); experiment: Test A postemergence, visual injury rating; conditions: 0 is no effect, 100 is complete control; for Barnyardgrass plant response rating: 31 g ai/ha, 0 to 100 scale, approximately 10 days
Method in brief: as §1

[6] = tested on: wheat (Triticum aestivum); experiment: Test A postemergence, visual injury rating; conditions: 0 is no effect, 100 is complete control; for Wheat plant response rating: 31 g ai/ha, 0 to 100 scale, approximately 10 days
Method in brief: as §1

[7] = tested on: galium (catchweed bedstraw, Galium aparine); experiment: Test A postemergence, visual injury rating; conditions: 0 is no effect, 100 is complete control; for Galium plant response rating: 31 g ai/ha, 0 to 100 scale, approximately 10 days
Method in brief: as §1

[8] = tested on: pigweed (Amaranthus retroflexus); experiment: Test A postemergence, visual injury rating; conditions: 0 is no effect, 100 is complete control; for Pigweed plant response rating: 31 g ai/ha, 0 to 100 scale, approximately 10 days
Method in brief: as §1

[9] = tested on: giant foxtail (Setaria faberii); experiment: Test A postemergence, visual injury rating; conditions: 0 is no effect, 100 is complete control; for Foxtail, Giant plant response rating: 31 g ai/ha, 0 to 100 scale, approximately 10 days
Method in brief: as §1

[10] = tested on: sedge, umbrella (small-flower umbrella sedge, Cyperus difformis); experiment: Test B flooded paddy test, plant response rating; conditions: 250 g ai/ha; Flood; scale of 0 to 100 where 0 is no effect and 100 is complete control; 13 to 15 days
Method in brief: (§2)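 Ratings were visual and made relative to untreated controls after 13 to 15 greenhouse days.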

[11] = tested on: barnyardgrass (Echinochloa crus-galli); experiment: Test B flooded paddy test, plant response rating; conditions: 250 g ai/ha; Flood; scale of 0 to 100 where 0 is no effect and 100 is complete control; 13 to 15 days
Method in brief: as §2

rice (Oryza sativa) = experiment: Test B flooded paddy test, plant response rating; conditions: 250 g ai/ha; Flood; scale of 0 to 100 where 0 is no effect and 100 is complete control; 13 to 15 days
Method in brief: as §2

[12] = tested on: ducksalad (Heteranthera limosa); experiment: Test B flooded paddy test, plant response rating; conditions: 250 g ai/ha; Flood; scale of 0 to 100 where 0 is no effect and 100 is complete control; 13 to 15 days
Method in brief: as §2

[13] = tested on: ragweed (common ragweed, Ambrosia elatior); experiment: Test A preemergence, visual injury rating; conditions: for Ragweed plant response rating: 0 to 100 scale (0 no effect, 100 complete control); for Plant response rating, Ragweed: 31 g ai/ha, 0 to 100 scale, 0 no effect, 100 complete control
Method in brief: as §1

[14] = tested on: Italian ryegrass (Lolium multiflorum); experiment: Test A preemergence, visual injury rating; conditions: for Ryegrass, Italian plant response rating: 0 to 100 scale (0 no effect, 100 complete control); for Plant response rating, Ryegrass, Italian: 31 g ai/ha, 0 to 100 scale, 0 no effect, 100 complete control
Method in brief: as §1

kochia (Kochia scoparia) [15] = experiment: Test A preemergence, visual injury rating; conditions: for Kochia plant response rating: 0 to 100 scale (0 no effect, 100 complete control); for Plant response rating, Kochia: 31 g ai/ha, 0 to 100 scale, 0 no effect, 100 complete control
Method in brief: as §1

[16] = tested on: barnyardgrass (Echinochloa crus-galli); experiment: Test A preemergence, visual injury rating; conditions: for Barnyardgrass plant response rating: 0 to 100 scale (0 no effect, 100 complete control); for Plant response rating, Barnyardgrass: 31 g ai/ha, 0 to 100 scale, 0 no effect, 100 complete control
Method in brief: as §1

[17] = tested on: pigweed (Amaranthus retroflexus); experiment: Test A preemergence, visual injury rating; conditions: for Pigweed plant response rating: 0 to 100 scale (0 no effect, 100 complete control); for Plant response rating, Pigweed: 31 g ai/ha, 0 to 100 scale, 0 no effect, 100 complete control
Method in brief: as §1

[18] = tested on: giant foxtail (Setaria faberii); experiment: Test A preemergence, visual injury rating; conditions: for Foxtail, Giant plant response rating: 0 to 100 scale (0 no effect, 100 complete control); for Plant response rating, Foxtail, Giant: 31 g ai/ha, 0 to 100 scale, 0 no effect, 100 complete control
Method in brief: as §1

SMILES	Corn plant response rating (0 to 100 scale) (corn (Zea mays); 125 g ai/ha)	Ragweed plant response rating (0 to 100 scale) ([1]; 125 g ai/ha)	Ryegrass, Italian plant response rating (0 to 100 scale) ([2]; 125 g ai/ha)	Kochia plant response rating (0 to 100 scale) (kochia (Kochia scoparia) [3]; 125 g ai/ha)	Blackgrass plant response rating (0 to 100 scale) ([4]; 125 g ai/ha)	Barnyardgrass plant response rating (0 to 100 scale) ([5]; 125 g ai/ha)	Wheat plant response rating (0 to 100 scale) ([6]; 125 g ai/ha)	Galium plant response rating (0 to 100 scale) ([7]; 125 g ai/ha)	Pigweed plant response rating (0 to 100 scale) ([8]; 125 g ai/ha)	Foxtail, Giant plant response rating (0 to 100 scale) ([9]; 125 g ai/ha)	Plant response rating, Sedge, Umbrella [10]	Plant response rating, Barnyardgrass [11]	Plant response rating, Rice (rice (Oryza sativa))	Plant response rating, Ducksalad [12]	Ragweed plant response rating ([13]; 125 g ai/ha)	Ryegrass, Italian plant response rating ([14]; 125 g ai/ha)	Kochia plant response rating (kochia (Kochia scoparia) [15]; 125 g ai/ha)	Barnyardgrass plant response rating ([16]; 125 g ai/ha)	Pigweed plant response rating ([17]; 125 g ai/ha)	Foxtail, Giant plant response rating ([18]; 125 g ai/ha)	other results
CN(OCC(F)(F)F)C(=O)c1c(Br)cccc1Oc1ncc(Cl)cn1 [Compound 25]	0	10	0	10	0	0	0	20	30	0	0	0	0	0	0	0	0	0	40	10	Corn plant response rating (0 to 100 scale) (corn (Zea mays); 500 g ai/ha): 20; Ragweed plant response rating (0 to 100 scale) ([1]; 500 g ai/ha): 20; Ryegrass, Italian plant response rating (0 to 100 scale) ([2]; 500 g ai/ha): 0; Kochia plant response rating (0 to 100 scale) (kochia (Kochia scoparia) [3]; 500 g ai/ha): 50; Blackgrass plant response rating (0 to 100 scale) ([4]; 500 g ai/ha): 30; Barnyardgrass plant response rating (0 to 100 scale) ([5]; 500 g ai/ha): 10; Wheat plant response rating (0 to 100 scale) ([6]; 500 g ai/ha): 10; Galium plant response rating (0 to 100 scale) ([7]; 500 g ai/ha): 50; Pigweed plant response rating (0 to 100 scale) ([8]; 500 g ai/ha): 60; Foxtail, Giant plant response rating (0 to 100 scale) ([9]; 500 g ai/ha): 10; Ragweed plant response rating ([13]; 500 g ai/ha): 0; Ryegrass, Italian plant response rating ([14]; 500 g ai/ha): 0; Kochia plant response rating (kochia (Kochia scoparia) [15]; 500 g ai/ha): 50; Barnyardgrass plant response rating ([16]; 500 g ai/ha): 30; Pigweed plant response rating ([17]; 500 g ai/ha): 80; Foxtail, Giant plant response rating ([18]; 500 g ai/ha): 60
O=C(OC(CCl)CCl)c1c(Br)cccc1Oc1ncc(Cl)cn1 [Compound 36]	0	0	0	0	0	0	0	0	60	0	0	0	0	0	0	0	0	0	0	0	Corn plant response rating (corn (Zea mays)): 0; Ragweed plant response rating [1]: 0; Ryegrass, Italian plant response rating [2]: 0; Kochia plant response rating (kochia (Kochia scoparia) [3]): 0; Blackgrass plant response rating [4]: 0; Barnyardgrass plant response rating [5]: 0; Wheat plant response rating [6]: 0; Galium plant response rating [7]: 0; Pigweed plant response rating [8]: 0; Foxtail, Giant plant response rating [9]: 0; Plant response rating, Ragweed [13]: 0; Plant response rating, Ryegrass, Italian [14]: 0; Plant response rating, Kochia (kochia (Kochia scoparia) [15]): 0; Plant response rating, Barnyardgrass [16]: 0; Plant response rating, Pigweed [17]: 0; Plant response rating, Foxtail, Giant [18]: 0
C=CC(C)COC(=O)c1c(Br)cccc1Oc1ncc(Cl)cn1 (stereo not drawn) [Compound 37]	10	0	0	40	30	30	0	40	80	40	0	0	0	0	0	0	0	30	0	70	Corn plant response rating (corn (Zea mays)): 0; Ragweed plant response rating [1]: 0; Ryegrass, Italian plant response rating [2]: 0; Kochia plant response rating (kochia (Kochia scoparia) [3]): 0; Blackgrass plant response rating [4]: 0; Barnyardgrass plant response rating [5]: 0; Wheat plant response rating [6]: 0; Galium plant response rating [7]: 10; Pigweed plant response rating [8]: 20; Foxtail, Giant plant response rating [9]: 0; Plant response rating, Ragweed [13]: 0; Plant response rating, Ryegrass, Italian [14]: 0; Plant response rating, Kochia (kochia (Kochia scoparia) [15]): 0; Plant response rating, Barnyardgrass [16]: 0; Plant response rating, Pigweed [17]: 0; Plant response rating, Foxtail, Giant [18]: 20
C#CCCOC(=O)c1c(Br)cccc1Oc1ncc(Cl)cn1 [Compound 38]	10	10	0	60	0	60	0	80	100	90	30	0	0	40	0	0	40	90	100	100	Corn plant response rating (corn (Zea mays)): 0; Ragweed plant response rating [1]: 0; Ryegrass, Italian plant response rating [2]: 0; Kochia plant response rating (kochia (Kochia scoparia) [3]): 30; Blackgrass plant response rating [4]: 0; Barnyardgrass plant response rating [5]: 10; Wheat plant response rating [6]: 0; Galium plant response rating [7]: 50; Pigweed plant response rating [8]: 80; Foxtail, Giant plant response rating [9]: 40; Plant response rating, Ragweed [13]: 0; Plant response rating, Ryegrass, Italian [14]: 0; Plant response rating, Kochia (kochia (Kochia scoparia) [15]): 0; Plant response rating, Barnyardgrass [16]: 20; Plant response rating, Pigweed [17]: 60; Plant response rating, Foxtail, Giant [18]: 30
